Laboratory results reported in article PMC12750394 (ACS Omega, 2025).
Bridge positions count the residues as written; N and C are the ends. Square brackets hold non-standard residues; d marks the D form. Peptide text beside a SMILES is read from it. * marks the point of attachment. X1 = CC[C@H](C)CCCCC(=O)*; Dab = NCC[C@H](N)C(=O)O

Experiments:
[1] = system: E. coli; test: microbe, parasite or virus in culture; conditions: for average MIC against E. coli: microbroth dilution, 4 × 10^6 CFU/mL, 1 h at 37 °C, TSB added, 24 h at 37 °C, growth inhibition read visually, highest DesHDAP2 concentration […], three technical replicates each from four independent biological experiments
Protocol: (§1) For radial diffusion, microbroth dilution, and checkerboard assays, bacterial cultures in tryptic soy broth (TSB) were started from individual colonies picked from agar plates and grown overnight (≈16–18 h) in a shaking incubator at 37 °C. Overnight bacterial cultures were diluted into fresh TSB and grown at 37 °C to an optical density (OD600) of 0.5–0.7. Bacteria were pelleted via centrifuge at 1500g at room temperature for 10 min, washed once with cold sterile sodium phosphate buffer (10 mM Na3PO4, 100 mM NaCl, pH 7.4), then pelleted and resuspended again in sodium phosphate buffer.
(§2) Antimicrobial activity was assessed using the microbroth dilution assay. A resuspended bacterial culture prepared as described above was mixed with deionized water to reach a final bacterial concentration of 4 × 10^6 CFU/mL. A twofold dilution series of peptides in deionized water was prepared. 10 μL of the serial dilutions were added to 90 μL of the 4 × 10^6 CFU/mL bacterial solution in a 96-well plate. […] After incubating for 1 h at 37 °C, 50 μL of TSB was added to each testing well.

[2] = system: B. subtilis; test: microbe, parasite or virus in culture; conditions: for average MIC against B. subtilis: microbroth dilution, 4 × 10^6 CFU/mL, 1 h at 37 °C, TSB added, 24 h at 37 °C, growth inhibition read visually, highest DesHDAP2 concentration […], three technical replicates each from four independent biological experiments; for MIC: Bacillus subtilis, read-out: average MIC against B. subtilis
Text: as §1, with “The bacteria species and strains used in this study were: Top10 E. coli containing a pET plasmid with ampicillin resistance (Invitrogen Top10), S. marcescens (Carolina Biosciences #155554A), E. aerogenes (ATCC #51697), E. raffinosus (ATCC #49464), S. epidermidis (ATCC #14990) and B. subtilis (ATCC #6501). For” for “For”
as §2, with “well. After incubation for 24 h at 37 °C, growth inhibition was determined visually to assess MIC.” for “well.”

| Compound | average MIC against E. coli [1] | average MIC against B. subtilis [2] | MIC ([1]; Escherichia coli, read-out: average MIC against E. coli) | MIC [2] |
| --- | --- | --- | --- | --- |
| NC[C@H]1O[C@H](O[C@H]2[C@H](O)[C@@H](O[C@H]3O[C@H](CO)[C@@H](O)[C@H](N)[C@H]3O)[C@H](N)C[C@@H]2N)[C@H](O)[C@@H](O)[C@@H]1O [kanamycin] | 50 µg/mL | 3.125 µg/mL | – | – |
| C[C@H]1COc2c(N3CCN(C)CC3)c(F)cc3c(=O)c(C(=O)O)cn1c23 [levofloxacin] | – | – | 0.2 µg/mL | 5 µg/mL |
| CN(C)[C@@H]1C(O)=C(C(N)=O)C(=O)[C@@]2(O)C(O)=C3C(=O)c4c(O)cccc4[C@@](C)(O)[C@H]3C[C@@H]12 [tetracycline] | – | – | – | 15.6 µg/mL |
| CC[C@H](C)CCCCC(=O)N[C@@H](CCN)C(=O)N[C@H](C(=O)N[C@@H](CCN)C(=O)N[C@H]1CCNC(=O)[C@H]([C@@H](C)O)NC(=O)[C@H](CCN)NC(=O)[C@H](CCN)NC(=O)[C@H](CC(C)C)NC(=O)[C@@H](Cc2ccccc2)NC(=O)[C@H](CCN)NC1=O)[C@@H](C)O [polymyxin B] (X1-[Dab]T[Dab][Dab][Dab][dF]L[Dab][Dab]T; lactam 4-C (inferred); N-terminus assumed) | 65 µg/mL | 2000 µg/mL | – | – |
